# Measured values reported in US20180318197A1, “SOYASAPONIN-CONTAINING COMPOSITION FOR SKIN WHITENING” (AMOREPACIFIC CORPORATION, priority 2015, published 2018).
# Experiments:
# [1] = tested on: Murine melanoma (B16) cells; assay: Evaluation of the degree of melanin production inhibition in α-MSH-stimulated B16 cells; assay type: cell-based; settings: B16 cells with α-MSH; 12.5, 25, 50 or 100 μM soyasaponin Aa; 3 days; absorbance at 490 nm
# Description: Murine melanoma (B16) cells purchased from the Korean Cell Line Bank were seeded into each well of a 12-well plate (5×10^4 cells/well) in DMEM (Dulbecco's modified eagle's medium) containing FBS (fetal calf serum) or a medium having growth rates equivalent to or higher than those in the DMEM. The cells were cultured at 37° C. with 5% CO2 until they reached about 80% confluency. After cultivation, the medium was removed and samples were replaced in medium diluted with 12.5, 25, 50 or 100 μM of soyasaponin Aa, or 100 ppm (corresponding to 700 μM) of kojic acid, and then cultured at 37° C. with 5% CO2 for 3 days. At this time, α-MSH (melanin stimulation hormone), which is a substance that allows B16 cells to better form melanin during cultivation, was included together in the medium of the other treatment groups except for the untreated control group. […] The concentration range of the samples was determined through toxicity tests. […] The obtained solution was measured for the absorbance at 490 nm using an ELISA reader (Synergy 2, BioTek. USA), and the amount of protein was determined by the Bradford assay, and then the amount of melanin per constant number of cells or the amount of melanin per constant amount of protein was estimated. […]
# [2] = target: T1, melanocyte-derived tyrosinase (melan-a cell extract) (Mus musculus, UniProt P11344); assay: Cell extract tyrosinase inhibitory activity (DOPA to dopachrome colorimetric reaction); assay type: biochemical; settings: pH 6.8, substrate DOPA, absorbance at 475 nm
# T1 construct: melan-a cell extract mixture; endogenous in cells; host or cells: melan-a cells (cell extract)
# T1 sequence (P11344 19-533): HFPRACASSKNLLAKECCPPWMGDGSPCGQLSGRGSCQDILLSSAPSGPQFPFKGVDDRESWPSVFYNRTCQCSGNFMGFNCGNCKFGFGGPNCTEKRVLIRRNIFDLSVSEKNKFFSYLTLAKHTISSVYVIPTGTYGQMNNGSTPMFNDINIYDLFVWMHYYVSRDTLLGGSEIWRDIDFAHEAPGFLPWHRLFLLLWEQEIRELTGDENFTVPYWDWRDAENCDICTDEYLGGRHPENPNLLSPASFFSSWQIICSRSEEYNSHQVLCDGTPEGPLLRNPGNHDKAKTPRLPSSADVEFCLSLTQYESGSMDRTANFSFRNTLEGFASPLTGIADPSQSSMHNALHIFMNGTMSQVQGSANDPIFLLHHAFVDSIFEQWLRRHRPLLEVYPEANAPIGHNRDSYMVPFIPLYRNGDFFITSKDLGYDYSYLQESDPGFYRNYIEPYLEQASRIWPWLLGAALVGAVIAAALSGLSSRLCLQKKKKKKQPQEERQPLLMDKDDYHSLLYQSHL
# Description: Tyrosinase is an important enzyme that regulates the first step that is performed to produce melanin in the process of pigmentation, and tyrosinase inhibitory activity is known to be an important efficacy mechanism for whitening. Therefore, in this test example, the ability of soyasaponin to inhibit the activity of tyrosinase was evaluated using a method for inhibiting the activity of cell extract tyrosinase. The method for evaluating the cell extract tyrosinase inhibitory activity is based on a phenomenon that melanocyte-derived tyrosinase causes a colorimeteric reaction by allowing substrate DOPA (3,4-dihydroxyphenylalanine; colorless) to form dopacrome (reddish brown).
# Specific experimental methods are as follows. Kojic acid as a positive control and soyasaponin Aa as an evaluation material were prepared by concentrating four times the concentration to be evaluated. Then, the reaction mixture (pH 6.8, 0.1M potassium phosphate buffer, melan-a cell extract mixture) was prepared in a 96 well plate. Since there may be colors depending on the evaluation material, a reaction mixture containing no cell extract liquid was made into a vehicle for background removal. […] Absorbance was measured at 475 nm using an ELISA reader (Synergy2, BioTek, USA) at intervals of 10 minutes until sufficient colorimeteric reaction had occurred.
smiles,measurement,setting,value
CC(=O)O[C@@H]1[C@@H](OC(C)=O)[C@H](O[C@@H]2[C@@H](O)[C@H](O[C@@H]3[C@H](O)C(C)(C)C[C@H]4C5=CC[C@@H]6[C@@]7(C)CC[C@H](O[C@@H]8O[C@H](C(=O)O)[C@@H](O)[C@H](O)[C@H]8O[C@@H]8O[C@H](CO)[C@H](O)[C@H](O)[C@H]8O[C@@H]8O[C@H](CO)[C@@H](O)[C@H](O)[C@H]8O)[C@](C)(CO)[C@@H]7CC[C@@]6(C)[C@]5(C)CC[C@@]34C)OC[C@@H]2O)OC[C@H]1OC(C)=O [soyasaponin Aa],synthesis of melanin (intracellular FIG. 3 and extracellular FIG. 4),[1],effectively inhibited
same,activity of tyrosinase (FIG. 5),[2],effectively inhibited
